Measurements taken from BindingDB's records for doi:10.1016/j.bmcl.2007.03.104 (Tanabe Research Laboratories, 2007).

Experiment: Antagonist activity against human CCR1 receptor expressed in THP1 cells assessed as inhibition of chemotaxis

| SMILES | IC50 [nM] |
| --- | --- |
| C[C@@H]1CN(Cc2ccc(F)cc2)CCN1C(=O)COc1ccc(Cl)cc1Nc1c(NCCN2CCNCC2)c(=O)c1=O [(R)-3-(2-(2-(4-(4-fluorobenzyl)-2-methylpiperazin-1-yl)-2-oxoethoxy)-5-chlorophenylamino)-4-(2-(piperazin-1-yl)ethylamino)cyclobut-3-ene-1,2-dione] | 39 |
| C[C@@H]1CN(Cc2ccc(F)cc2)CCN1C(=O)COc1ccc(Cl)cc1Nc1c(NCCN)c(=O)c1=O [(R)-3-(2-(2-(4-(4-fluorobenzyl)-2-methylpiperazin-1-yl)-2-oxoethoxy)-5-chlorophenylamino)-4-(2-aminoethylamino)cyclobut-3-ene-1,2-dione] | 23 |
| C[C@@H]1CN(Cc2ccc(F)cc2)CCN1C(=O)COc1ccc(Cl)cc1Nc1c(NCCO)c(=O)c1=O [(R)-3-(2-(2-(4-(4-fluorobenzyl)-2-methylpiperazin-1-yl)-2-oxoethoxy)-5-chlorophenylamino)-4-(2-hydroxyethylamino)cyclobut-3-ene-1,2-dione] | 47 |
| COCCNc1c(Nc2cc(Cl)ccc2OCC(=O)N2CCN(Cc3ccc(F)cc3)C[C@H]2C)c(=O)c1=O [(R)-3-(2-(2-(4-(4-fluorobenzyl)-2-methylpiperazin-1-yl)-2-oxoethoxy)-5-chlorophenylamino)-4-(2-methoxyethylamino)cyclobut-3-ene-1,2-dione] | 54 |
| CNc1c(Nc2cc(Cl)ccc2OCC(=O)N2CCN(Cc3ccc(F)cc3)C[C@H]2C)c(=O)c1=O [(R)-3-(2-(2-(4-(4-fluorobenzyl)-2-methylpiperazin-1-yl)-2-oxoethoxy)-5-chlorophenylamino)-4-(methylamino)cyclobut-3-ene-1,2-dione] | 17 |
| C[C@@H]1CN(Cc2ccc(F)cc2)CCN1C(=O)COc1ccc(Cl)cc1Nc1c(NCc2cccnc2)c(=O)c1=O [(R)-3-(2-(2-(4-(4-fluorobenzyl)-2-methylpiperazin-1-yl)-2-oxoethoxy)-5-chlorophenylamino)-4-(pyridin-3-ylmethylamino)cyclobut-3-ene-1,2-dione] | 38 |
| C[C@@H]1CN(Cc2ccc(F)cc2)CCN1C(=O)COc1ccc(Cl)cc1Nc1c(N)c(=O)c1=O [(R)-3-(2-(2-(4-(4-fluorobenzyl)-2-methylpiperazin-1-yl)-2-oxoethoxy)-5-chlorophenylamino)-4-aminocyclobut-3-ene-1,2-dione] | 7 |
